# Experimental data: US20260248852A1, “SYNTHETIC ANTIGEN RECEPTORS FOR COVALENT IMMUNE RECRUITERS AND METHODS AND USES THEREOF” (McMaster University, priority 2022, published 2026)
# Entries after “also recorded” stand apart in the source; their conditions may differ.
# Tests used:
# Assay type in all cases: cell-based, human
# [1] = test system: 293-PSMA cells; assay: CD69 and Nur77 expression of activated ABT cells with 293-PSMA cells
# Description: (§1) Cells were stained for surface marker expression via Pacific Blue-conjugated mouse anti-human CD4, and AlexaFluor700-conjugated mouse anti-human CD8a, VioBright FITC-conjugated mouse anti-human NGFR, and anti-huCD69, fixed and permeabilized in Permiabilization concentrate diluted in permeabilization diluent, and stained intracellularly with PE-conjugated mouse anti-mouse Nur77.
# [2] = test system: PSMA-positive LNCaP cells; assay: Anti-DNP GDT cell mediated killing of LNCaP cells (Incucyte)
# Method: Measuring T cell mediated killing of LNCaP cells: LNCaP prostate cancer cells, which are prostate specific membrane antigen (PSMA) positive, were engineered with Nuclight Red lentivirus to produce cells with nuclear localized red fluorescence to allow for ease of imaging in these experiments. […] Samples were run in triplicate. The number of LNCaP cells per well at each time point was calculated using the Incucyte cell by cell analysis software and plotted. The area under the growth curve was used as a metric for tumor cell growth for this figure. The larger the area, the greater the tumor cell growth that occurred over the 3 days. The area under the curve for the LNCaP control and each condition were used to calculate the % cytotoxicity.
# [3] = test system: PSMA transduced HEK-293 cells; assay: IFN-gamma / TNF-alpha production of Anti-DNP TAC ABT cells following stimulation with HEK-293 PSMA cells; details: Anti-DNP TAC ABT cells prelabelled 6 hours; co-culture 4 hours
# Method: The cells were co-cultured together for 4 hours at 37 degrees. Golgi plug was added prior to the co-incubation to prevent cytokine secretion. To stop the activation 20 mM EDTA was added and incubated for 15 minutes. The cells were spun down, media was aspirated, and the cells were stored in 200 μL of cRPMI overnight at 4 degrees. The next day, the cells were surface stained with anti-CD4 Pacific Blue, anti-CD8 Alexa Fluor 700, and anti-NGFR Viobright FITC. The cells were then fixed and permeabilized using a fix/perm buffer solution. The cells were then intracellularly stained with anti-CD3 BV605, anti-TNF-alpha PE-CY7, and anti-IFN-gamma APC. Cells were then run on the Beckman Coulter Cytoflex flow cytometer. The percent of cells positive for TNF-alpha and IFN-gamma, as well as cells positive for both were recorded in the table for the separate CD4 and CD8 T-cell populations.
# [4] = test system: HEK293-PSMA cells (PSMA expressing); assay: Cytokine production of engineered ABT cells following stimulation with HEK293-PSMA cells
# Method: (§2) Measuring cytokine production following stimulation with HEK-293 cells: In a 96 well round bottom plate, 4E5 HEK293-PSMA cells (PSMA expressing) or HEK293-WT cells were incubated with 4E5 Anti-DNP TAC ABT cells, Anti-DNP DAP12 SAR ABT cells, or Anti-CD28 CAR ABT-cells. […] To stop the activation 20 mM EDTA was added and incubated for 15 minutes. Cells were stained for surface expression of CD4 and CD8, fixed and permeabilized in Cytofix/Cytoperm buffer, and stained with APC-conjugated mouse anti-human interferon-gamma, and FITC-conjugated mouse anti-human tumor necrosis factor-alpha. Cells were then run on the Beckman Coulter Cytoflex flow cytometer. The percent of cells positive for tumor necrosis factor-alpha and interferon-gamma for CD4 and CD8 T-cell populations were graphed separately showing the same overall trends.
# [5] = test system: PSMA transduced HEK-293 cells; assay: CD69 upregulation of DNP-TAC T cells following stimulation with HEK-293 PSMA cells; details: DNP-TAC T cells pre labelled 6 hours; co-culture overnight
# Method: The cells were co-cultured together overnight at 37 degrees. To stop the activation, 20 mM EDTA was added and incubated for 15 minutes. The cells were spun down, media was aspirated, and the cells were stored in 200 μL of cRPMI at 4 degrees prior to staining. The cells were stained with Live-Dead Zombie Aqua, anti-CD3 BV605, anti-CD4 Pacific Blue, anti-CD8 Alexa Fluor 700, anti-NGFR Viobright FITC, and anti-CD69 BV650. Upon staining the cells were run on the Beckman Coulter Cytoflex flow cytometer and analyzed for CD69 expression.
# [6] = test system: 293-WT cells (do not express PSMA); assay: CD69 and Nur77 expression of ABT cells with 293-WT cells; details: engineered ABT cells, 100 nM
# Description: as §1
# [7] = test system: PSMA-positive LNCaP cells; assay: Anti-DNP TAC ABT cell mediated killing of LNCaP cells (Incucyte)
# Method: Measuring T cell mediated killing of LNCaP cells: LNCaP prostate cancer cells, which are prostate specific membrane antigen (PSMA) positive, were engineered with Nuclight Red lentivirus to produce cells with nuclear localized red fluorescence to allow for ease of imaging in these experiments. […] The 3 components were co-cultured for 3 days with 4 images per well taken every 6 hours. Samples were run in triplicate. The number of LnCap cells per well at each time point was calculated using the Incucyte cell by cell analysis software and plotted. The area under the growth curve was used as a metric for tumor cell growth for this figure. The larger the area, the greater the tumor cell growth that occurred over the 3 days. The area under the curve for the LnCap control and each condition were used to calculate the % cytotoxicity.
# [8] = test system: 293-PSMA cells; assay: Proliferation of adapter functionalized engineered ABT cells (CellTrace Violet)
# Method: Each engineered T cell was also cultured in media alone as a control to compare to. All proliferation assay samples were incubated for 3 days at 37° C. and 5% CO2. Cells were then stained with Live/Dead Fixable Near-IR stain, PerCP-Cy5.5-conjugated mouse anti-human CD8a, Alexa Fluor 700-conjugated mouse anti-human CD4, VioBright FITC-conjugated mouse anti-human NGFR, and BV605-conjugated mouse anti-human CD3. Flow cytometry data were acquired.
# [9] = test system: HEK293-WT cells; assay: Cytokine production of engineered ABT cells, controls with 293-WT cells or no tumor cells; details: Media+CIR; 293-WT+CIR
# Method: as §2
# [10] = test system: uPAR-positive A172 cells; assay: Anti-DNP GDT cell mediated killing of A172 cells; details: Anti-DNP CD28 CAR GDT cells; E:T 8:1; 1, 10, 100 nM; 3 days
# Method: Engineering GDT cells with Anti-DNP DAP12-SAR or Anti-DNP CD28 CAR: PBMC were seeded at 4E6 cells per well in a 24 well G-Rex plate in the presence of 1 ug/ml zoledronate and 1.5 ng/ml human IL2. Three days later, the cells were incubated overnight in a 24 well non tissue culture treated plate that was pre coated with retronectin and retrovirus supernatant containing viruses encoding the Anti-DNP DAP12-SAR or Anti-DNP CD28 CAR. The cells were then transferred back to the G-Rex plate and cultured for a further 11 days at which point, the cell product was collected, CD4/CD8 T cells were removed by magnetic selection and the purified engineered GDT cells were cryopreserved.
# Measuring T cell mediated killing of A172 cells: A172 cells, which are urokinase type plasminogen activator receptor (uPAR) positive, were engineered with eGFP lentivirus to produce green fluorescent protein expressing cells. […] Also added to the wells were uPAR-CIR or uPAR-(N)CIR at a range of concentrations from 1 nM, 10 nM and 100 nM. […] Samples were run in triplicate. The green image mean of the wells at each time point was calculated using the Incucyte cell by cell analysis software and plotted to yield the following figures. […] For the analysis of killing by Anti-DNP CD28 CAR GDT cells, the area under the growth curve (AUC) was analyzed using PRISM Graphpad and to calculate the % cytotoxicity.
structure (smiles),measurement,setting,value
"O=C(O)CC[C@H](NC(=O)N[C@@H](CCCCNC(=O)NCCOCCOCCOCCOCCOCCOCCOCCOC(=O)n1cnc(CCNC(=O)CNc2ccc([N+](=O)[O-])cc2[N+](=O)[O-])c1)C(=O)O)C(=O)O [PSMA-CIR, DNP-Acyl Imidazole-Glutamate Urea Lysine]","T cell activation (Nur77, CD69), compared to PSMA-(N)CIR","[1]; Anti-DNP DAP12-SAR T cells, 10 nM and 1 nM",greater activation at both concentrations
same,"T cell activation (Nur77, CD69)","[1]; Anti-DNP TAC-T cells, 10 nM and 1 nM",could elicit T cell activation
same,"T cell activation (Nur77, CD69), compared to PSMA-(N)CIR",[1]; Anti-DNP-CD28 CAR T cells,much greater activation
same,upregulation of Nur77 and CD69,"[1]; TAC, DAP12-SAR and CD28-CAR ABT cells, 293-PSMA, 100 nM, 4 hours",Upregulation of Nur77 and CD69; also recorded: only occurred in the presence of CIR and PSMA-expressing target cells
same,"upregulation of Nur77 and CD69, CIR compared to (N)CIR","[1]; all engineered ABT cells, 293-PSMA, 10 nM and 1 nM",stronger with CIR compared to (N)CIR; also recorded: increased activation and downstream signal strength
same,adapter concentration at which tumor killing is observed,[2]; Anti-DNP CD28 CAR GDT cells,≤ 15 nM
same,killing of LNCaP cells,"[2]; Anti-DNP CD28 CAR GDT cells, 125 nM adapter",could direct T cell cytotoxicity; also recorded: displayed tumor growth control
same,killing of LNCaP cells,"[2]; Anti-DNP DAP12-SAR GDT cells, 125 nM adapter",could trigger killing; also recorded: only suppressed tumor growth in the presence of the PSMA-CIR
same,adapter concentration at which tumor killing is observed,[2]; Anti-DNP DAP12 SAR GDT cells,≤ 15 nM
same,killing of LNCaP cells after preincubation and wash,"[2]; Anti-DNP DAP12 SAR and Anti-DNP CD28 CAR GDT cells, 1 uM adapter for 6 hours, washed, then co-culture",retained the ability to kill LNCaP cells
same,killing of LNCaP cells,"[2]; CD28 CAR GDT cells, 10 nM adapter",robust LNCaP killing
same,LNCaP killing over a range of concentrations,"[2]; both Anti-DNP DAP12-SAR GDT cells and Anti-DNP CD28 CAR GDT cells, 15.6 nM-250 nM",sustained across all concentrations
same,production of IFN-gamma and TNF-alpha,[3],production of IFN-gamma and TNF-alpha
same,"cytokine production, compared to PSMA-(N)CIR","[4]; CD28-CAR T cells, 1 nM, 10 nM",increased cytokine production at lower concentrations
same,cytokine production,"[4]; CD28-CAR T cells, highest concentration (100 nM)",equivalent levels of cytokine production
same,cytokine production,"[4]; DAP12-SAR T cells, 1, 10, 100 nM",strongest activation was mediated by the CIR
same,cytokine production,"[4]; TAC T cells, 1, 10, 100 nM",only activated by the CIR
same,production of interferon-gamma and tumor necrosis factor-alpha,"[4]; all three engineered receptors (TAC, DAP12-SAR, CD28-CAR) ABT cells, 1, 10, 100 nM",target specific production of interferon-gamma and tumor necrosis factor-alpha; also recorded: Increased cytokine production
same,T cell activation based on upregulation of CD69,[5],PSMA-specific activation; also recorded: capable of stimulating Anti-DNP TAC T cell activation
same,Nur77 and CD69 (off-target activation),[6],no increase of Nur77 or CD69 above the media-only control
same,killing of LNCaP cells,"[7]; E:T 8:1, 15.63 nM to 125 nM, 3 days",could trigger killing; also recorded: promoted killing of the LNCaP cells at low nM concentrations
same,concentration effective at engaging tumor killing,"[7]; E:T 8:1, 3 days",≤ 15 nM
same,"T cell proliferation, PSMA-CIR versus PSMA-(N)CIR",[8]; Anti-DNP CD28 CAR T cells,performed similarly
same,T cell proliferation (percent divided),"[8]; Anti-DNP DAP12 SAR T cells, 1 nM, 10 nM, or 100 nM",robust proliferation
same,T cell proliferation (percent divided),"[8]; Anti-DNP TAC T cells, 1, 10, 100 nM, 3 days",only entered proliferation when co-cultured with 293-PSMA cells and 100 nM PSMA-CIR
same,cytokine production in controls,[9],the controls showed no cytokine production
"CC(C)C[C@H](NC(=O)[C@H](Cc1ccc(O)cc1)NC(=O)[C@@H](CCCNC(=N)N)NC(=O)[C@@H](CO)NC(=O)[C@H](Cc1ccccc1)NC(=O)[C@H](CC1CCCCC1)NC(=O)[C@H](CC(=O)O)NC(=O)CNC(=O)[C@H](CO)NC(=O)CNC(=O)CNC(=O)[C@H](CCCCNc1ccc([N+](=O)[O-])cc1[N+](=O)[O-])NC(=O)c1cccc(S(=O)(=O)F)c1)C(=O)N[C@@H](Cc1c[nH]c2ccccc12)C(=O)N[C@@H](CO)C(=O)O [uPAR-CIR, DNP-SuFEx-uPAR binding peptide]",cytotoxicity towards A172 cells,[10],exhibited cytotoxicity; also recorded: can be redirected
